The results in this text go back to US8785470B2, “Heterocyclic compounds and uses thereof” (Infinity Pharmaceuticals, Inc., priority 2011, dated 2014).

For one assay, the target named is T1, PI3Kβ (Homo sapiens, UniProt P42338).
T1 construct: purchased Millipore Corporation 14-603-K
The assay can be described thus: PI3-Kinase HTRF assay, PI3Kβ. Type of assay: biochemical. The conditions noted are these: bins Greater than 10 μM and Greater than 1 μM to 10 μM; 10 μM ATP, PIP2 at 10 μM. An excerpt:
(§1) A PI3-Kinase HTRF® assay kit (cat No. 33-016) purchased from Millipore Corporation was used to screen compounds provided herein. This assay used specific, high affinity binding of the GRPI pleckstrin homology (PH) domain to PIP3, the product of a Class 1A or 1B PI3 Kinase acting on its physiological substrate PIP2. During the detection phase of the assay, a complex was generated between the GST-tagged PH domain and biotinylated short chain PIP3. The biotinylated PIP3 and the GST-tagged PH domain recruited fluorophores (Streptavidin-Allophycocyanin and Europium-labeled anti-GST respectively) to form the fluorescence resonance energy transfer (FRET) architecture, generating a stable time-resolved FRET signal. The FRET complex was disrupted in a competitive manner by non-biotinylated PIP3, a product formed in the PI3 Kinase assay.
(§2) PI3 Kinase α, β, γ and δ activity was assayed using the PI3 Kinase HTRF® assay kit (catalogue No. 33-016) purchased from Millipore Corporation. Purified recombinant PI3Kα (catalogue No. 14-602-K), PI3Kβ (catalogue No. 14-603-K), PI3Kγ (catalogue No. 14-558-K) and PI3Kδ (catalogue No. 14-604-K) were obtained from Millipore Corporation. Purified recombinant PI3K enzyme was used to catalyze the phosphorylation of phosphatidylinositol 4,5-bisphosphate (PIP2 at 10 μM) to phosphatidylinositol 3,4,5-trisphosphate (PIP3) in the presence of 10 μM ATP. The assay was carried out in 384-well format and detected using a Perkin Elmer EnVision Xcite Multilabel Reader. Emission ratios were converted into percent inhibitions and imported into GraphPad Prism software. The concentration necessary to achieve inhibition of enzyme activity by 50% (IC50) was calculated using concentrations ranging from 20 μM to 0.1 nM (12-point curve). IC50 values were determined using a nonlinear regression model available in GraphPad Prism 5. […]
For orientation: In TR-FRET formats the signal depends on donor and acceptor labels being close together.

A further assay concerns the target T2, PI3Kα (Homo sapiens, UniProt P42336).
T2 construct: purchased Millipore Corporation 14-602-K
The assay can be described thus: PI3-Kinase HTRF assay, PI3Kα. Type of assay: biochemical. The conditions noted are these: bins Greater than 10 μM and Greater than 1 μM to 10 μM; 10 μM ATP, PIP2 at 10 μM; read-out: IC50 P13Kα.
Text: as §1, §2

The subject of a further assay is Balb/c splenic B cells. The assay can be described thus: B cell activation and proliferation assay. In kind it is cell-based. The conditions noted are these: Mus musculus, column bins 1 μM to 100 nM (given as 100-1000) and Less than 100 nM, read-out: B cell proliferation EC50. The procedure: The ability of one or more subject compounds to inhibit B cell activation and proliferation is determined according to standard procedures known in the art. For example, an in vitro cellular proliferation assay is established that measures the metabolic activity of live cells. The assay is performed in a 96 well microtiter plate using Alamar Blue reduction. Balb/c splenic B cells are purified over a Ficoll-Paque™ PLUS gradient followed by magnetic cell separation using a MACS B cell Isolation Kit (Miletenyi). Cells are plated in 90 μl at 50.000 cells/well in B Cell Media (RPMI+10% FBS+Penn/Strep+50 μME5 mM HEPES). A compound provided herein is diluted in B Cell Media and added in a 10 μl volume. Plates are incubated for 30 min at 37° C. and 5% CO2 (0.2% DMSO final concentration). A 50 μl B cell stimulation cocktail is then added containing either 10 μg/ml LPS or 5 μg/ml F(ab′)2 Donkey anti-mouse IgM plus 2 ng/ml recombinant mouse IL4 in B Cell Media. Plates are incubated for 72 hours at 37° C. and 5% CO2. A volume of 15 μL of Alamar Blue reagent is added to each well and plates are incubated for 5 hours at 37° C. and 5% CO2. Alamar Blue fluoresce is read at 560Ex/590Em, and IC50 or EC50 values are calculated using GraphPad Prism 5.

T1 sequence (P42338 whole entry): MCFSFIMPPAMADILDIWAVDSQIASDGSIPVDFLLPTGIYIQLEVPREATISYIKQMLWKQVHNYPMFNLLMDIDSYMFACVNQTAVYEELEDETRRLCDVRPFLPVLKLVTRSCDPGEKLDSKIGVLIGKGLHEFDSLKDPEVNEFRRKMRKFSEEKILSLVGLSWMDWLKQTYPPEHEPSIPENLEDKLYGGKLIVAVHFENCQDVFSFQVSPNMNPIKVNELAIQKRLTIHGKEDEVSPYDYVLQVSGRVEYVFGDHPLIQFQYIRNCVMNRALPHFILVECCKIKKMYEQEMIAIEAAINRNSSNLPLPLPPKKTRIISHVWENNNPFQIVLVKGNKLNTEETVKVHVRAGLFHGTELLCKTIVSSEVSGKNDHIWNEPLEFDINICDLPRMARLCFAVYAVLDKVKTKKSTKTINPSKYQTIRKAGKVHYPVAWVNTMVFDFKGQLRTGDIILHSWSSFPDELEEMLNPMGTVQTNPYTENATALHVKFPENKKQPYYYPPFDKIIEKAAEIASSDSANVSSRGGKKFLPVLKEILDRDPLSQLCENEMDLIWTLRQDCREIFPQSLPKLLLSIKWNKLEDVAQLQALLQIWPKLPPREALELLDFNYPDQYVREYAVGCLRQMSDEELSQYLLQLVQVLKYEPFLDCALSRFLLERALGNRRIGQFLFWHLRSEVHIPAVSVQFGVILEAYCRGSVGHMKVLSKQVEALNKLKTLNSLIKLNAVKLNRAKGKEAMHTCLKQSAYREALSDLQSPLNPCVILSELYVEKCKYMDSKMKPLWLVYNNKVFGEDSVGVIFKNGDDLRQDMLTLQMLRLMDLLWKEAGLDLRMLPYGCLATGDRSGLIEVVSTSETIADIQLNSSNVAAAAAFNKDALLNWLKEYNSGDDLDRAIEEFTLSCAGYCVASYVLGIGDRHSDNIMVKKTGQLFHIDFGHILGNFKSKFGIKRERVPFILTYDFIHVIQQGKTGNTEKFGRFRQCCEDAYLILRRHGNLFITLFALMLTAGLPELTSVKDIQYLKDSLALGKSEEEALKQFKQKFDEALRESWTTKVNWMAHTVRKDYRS
T1 sequence (P27986 whole entry partner): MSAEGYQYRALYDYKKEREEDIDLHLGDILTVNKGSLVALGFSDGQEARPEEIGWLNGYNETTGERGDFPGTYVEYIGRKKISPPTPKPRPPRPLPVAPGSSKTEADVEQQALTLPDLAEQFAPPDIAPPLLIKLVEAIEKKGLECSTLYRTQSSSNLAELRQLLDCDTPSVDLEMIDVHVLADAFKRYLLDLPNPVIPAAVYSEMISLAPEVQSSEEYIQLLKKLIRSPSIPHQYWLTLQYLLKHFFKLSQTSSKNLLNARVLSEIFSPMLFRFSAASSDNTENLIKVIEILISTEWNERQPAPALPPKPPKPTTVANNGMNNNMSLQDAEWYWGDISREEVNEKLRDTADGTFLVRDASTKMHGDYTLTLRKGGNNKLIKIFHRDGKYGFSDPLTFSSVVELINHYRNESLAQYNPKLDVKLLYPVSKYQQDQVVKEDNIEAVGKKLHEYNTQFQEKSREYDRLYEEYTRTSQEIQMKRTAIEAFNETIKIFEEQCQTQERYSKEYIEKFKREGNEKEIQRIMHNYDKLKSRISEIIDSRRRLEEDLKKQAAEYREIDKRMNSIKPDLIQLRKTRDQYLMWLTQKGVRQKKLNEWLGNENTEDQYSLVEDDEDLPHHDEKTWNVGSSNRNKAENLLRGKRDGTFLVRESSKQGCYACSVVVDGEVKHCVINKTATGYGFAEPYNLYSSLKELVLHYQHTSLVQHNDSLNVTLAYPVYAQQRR
T2 sequence (P42336 whole entry): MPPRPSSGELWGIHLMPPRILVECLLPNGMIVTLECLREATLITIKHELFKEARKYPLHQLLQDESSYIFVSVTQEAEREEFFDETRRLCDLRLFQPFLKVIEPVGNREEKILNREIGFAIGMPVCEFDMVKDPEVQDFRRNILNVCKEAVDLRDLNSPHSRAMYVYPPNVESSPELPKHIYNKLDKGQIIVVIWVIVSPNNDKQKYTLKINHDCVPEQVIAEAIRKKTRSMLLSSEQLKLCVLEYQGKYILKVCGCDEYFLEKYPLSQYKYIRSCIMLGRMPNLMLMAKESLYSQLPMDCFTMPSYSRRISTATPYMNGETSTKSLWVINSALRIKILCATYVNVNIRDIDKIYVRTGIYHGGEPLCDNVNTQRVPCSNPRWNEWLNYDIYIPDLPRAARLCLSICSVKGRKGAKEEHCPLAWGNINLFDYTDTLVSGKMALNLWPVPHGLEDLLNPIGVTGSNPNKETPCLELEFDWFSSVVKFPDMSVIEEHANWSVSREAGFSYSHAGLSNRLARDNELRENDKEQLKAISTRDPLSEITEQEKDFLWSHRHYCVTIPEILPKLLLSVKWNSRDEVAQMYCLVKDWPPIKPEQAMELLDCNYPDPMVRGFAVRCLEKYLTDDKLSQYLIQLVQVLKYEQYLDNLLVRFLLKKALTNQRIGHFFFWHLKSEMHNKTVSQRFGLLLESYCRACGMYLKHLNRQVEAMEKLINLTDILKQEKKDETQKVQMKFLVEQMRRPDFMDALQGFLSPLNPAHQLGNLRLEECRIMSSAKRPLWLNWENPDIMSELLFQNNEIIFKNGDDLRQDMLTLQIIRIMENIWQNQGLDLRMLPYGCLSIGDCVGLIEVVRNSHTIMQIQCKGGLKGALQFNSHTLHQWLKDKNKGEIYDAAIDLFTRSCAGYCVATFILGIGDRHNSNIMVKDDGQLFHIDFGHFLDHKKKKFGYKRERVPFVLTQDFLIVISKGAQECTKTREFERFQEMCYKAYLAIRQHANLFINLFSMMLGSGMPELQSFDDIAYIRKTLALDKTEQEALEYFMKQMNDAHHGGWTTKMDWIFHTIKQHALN
T2 sequence (P27986 whole entry partner): as the sequence (P27986 whole entry partner) above

For `C[C@H](Nc1nc(N)ncc1C#N)c1cc2cccc(-c3cccc(Cl)c3)c2c(=O)n1-c1ccccc1` [Compound 34], the IC50 against PI3Kβ lay in the range of 1000 to 10000 nM.

Take `COc1cccc(-c2cccc3cc([C@H](C)Nc4nc(N)ncc4C#N)n(-c4ccccc4)c(=O)c23)c1` [Compound 36]: the IC50 against PI3Kβ was 1000 to 10000 nM. Still for that read-out and setting: then `C[C@H](Nc1nc(N)ncc1C#N)c1cc2cccc(-c3ccc(F)cc3)c2c(=O)n1-c1ccccc1` [Compound 37], with 1000 to 10000 nM; and `C[C@H](Nc1nc(N)ncc1C#N)c1cc2cccc(-c3cccc(N(C)C)c3)c2c(=O)n1-c1ccccc1` [Compound 40], with 1000 to 10000 nM. Regarding `Cc1ccc(-c2cccc3cc([C@H](C)Nc4nc(N)ncc4C#N)n(-c4ccccc4)c(=O)c23)cn1` [Compound 41], the IC50 at PI3Kα lay within 1000 to 10000 nM. Besides, the EC50 with Balb/c splenic B cells was less than 100 nM. At PI3Kβ, `Cc1cccc(-c2cccc3cc([C@H](C)Nc4nc(N)ncc4C#N)n(-c4ccccc4)c(=O)c23)c1` [Compound 46] had an IC50 of 1000 to 10000 nM. On the same count and under the same terms, then `CC(C)Oc1cncc(-c2cccc3cc([C@H](C)Nc4nc(N)ncc4C#N)n(-c4ccccc4)c(=O)c23)c1` [Compound 53], with 1000 to 10000 nM. On to `Cc1ncc(-c2cccc3cc([C@H](C)Nc4nc(N)ncc4C#N)n(-c4ccccc4)c(=O)c23)cn1` [Compound 55], for which the IC50 on PI3Kα was in the range of 1000 to 10000 nM. Further, the EC50 in the assay with Balb/c splenic B cells was less than 100 nM. Turning to `C[C@H](Nc1nc(N)ncc1C#N)c1cc2cccc(-c3ccnnc3)c2c(=O)n1-c1ccccc1` [Compound 57], on PI3Kα, the IC50 lay in the range of 1000 to 10000 nM. In the assay with Balb/c splenic B cells, the EC50 was less than 100 nM. For `C[C@H](Nc1nc(N)ncc1C#N)c1nc2cccc(Cl)c2c(=O)n1-c1ccccc1` [Compound 59, (S)-2-amino-4-((1-(5-chloro-4-oxo-3-phenyl-3,4-dihydroquinazolin-2-yl)ethyl)amino)pyrimidine-5-carbonitrile], at PI3Kα, the IC50 was in the range of 1000 to 10000 nM. Further, in the assay on Balb/c splenic B cells, the EC50 was less than 100 nM. On to `C#Cc1cccc2cc([C@H](C)Nc3nc(N)ncc3C#N)n(-c3ccccc3)c(=O)c12` [Compound 72], for which, at PI3Kα, the IC50 was 1000 to 10000 nM. Also, the EC50 in the assay on Balb/c splenic B cells was less than 100 nM. For `C#Cc1cnc(N)nc1N[C@@H](C)c1cc2cccc(Cl)c2c(=O)n1-c1ccccc1` [Compound 91], the 50% inhibitory concentration (IC50) at PI3Kα was in the range of 1000 to 10000 nM. For the same compound, the EC50 in the assay with Balb/c splenic B cells is less than 100 nM. In the same order, the values of `COc1ccc(-c2cccc3cc([C@H](C)Nc4nc(N)ncc4C#N)n(C4CC4)c(=O)c23)cn1` [Compound 108] are 1000 to 10000 nM and less than 100 nM.

For `Cc1csc(-c2cnc(N)nc2N[C@@H](C)c2cc3cccc(Cl)c3c(=O)n2-c2ccccc2)n1` [Compound 136], the IC50 on PI3Kα is 1000 to 10000 nM. In the assay with Balb/c splenic B cells, the EC50 was less than 100 nM.

On to `C[C@H](Nc1nc(N)ncc1C#N)c1cc2cccc(O)c2c(=O)n1-c1ccccc1` [Compound 145], for which the IC50 at PI3Kβ lay within 1000 to 10000 nM. On to `C[C@H](Nc1nc(N)ncc1C#N)c1cc2cccc(-c3cncc(OC(F)F)c3)c2c(=O)n1-c1ccccc1` [Compound 152], for which, at PI3Kα, the IC50 is 1000 to 10000 nM. For the same compound, the EC50 with Balb/c splenic B cells is less than 100 nM.

For the compound `C[C@H](Nc1nc(N)ncc1C#N)c1cc2cccc(-c3ccc(O)nc3)c2c(=O)n1-c1ccccc1` [Compound 156], the IC50 on PI3Kα was in the range of 1000 to 10000 nM. For the same compound, the EC50 with Balb/c splenic B cells was less than 100 nM. As for `C[C@H](Nc1nc(N)ncc1C#N)c1cc2cccc(-c3cccc(S(C)(=O)=O)c3)c2c(=O)n1-c1ccccc1` [Compound 164], at PI3Kα, the IC50 is 1000 to 10000 nM. Moreover, in the assay on Balb/c splenic B cells, the EC50 is less than 100 nM. Take `C[C@H](Nc1nc(N)ncc1-c1ccncc1)c1cc2cccc(Cl)c2c(=O)n1-c1ccccc1` [Compound 168]: the IC50 against PI3Kβ is 1000 to 10000 nM. Turning to `COc1cc(-c2cccc3cc([C@H](C)Nc4nc(N)ncc4-c4ccncc4)n(-c4ccccc4)c(=O)c23)ccn1` [Compound 169], the IC50 at PI3Kα fell in the range of 1000 to 10000 nM. The EC50 with Balb/c splenic B cells was less than 100 nM. In the same order, the values of `COc1cc(-c2cccc3cc([C@H](C)Nc4nc(N)ncc4[N+](=O)[O-])n(-c4ccccc4)c(=O)c23)ccn1` [Compound 177] are 1000 to 10000 nM and less than 100 nM. For the compound `CNc1cc(-c2cccc3cc([C@H](C)Nc4nc(N)ncc4C#N)n(-c4ccccc4)c(=O)c23)ccn1` [Compound 185], the IC50 at PI3Kα lay within 1000 to 10000 nM. The EC50 in the assay on Balb/c splenic B cells was less than 100 nM. `C[C@H](Nc1nc(N)ncc1C(=O)N(C)C)c1cc2cccc(Cl)c2c(=O)n1-c1ccccc1` [Compound 199]: the IC50 at PI3Kα fell in the range of 1000 to 10000 nM. The EC50 with Balb/c splenic B cells is less than 100 nM.

As for `C[C@H](Nc1nc(N)ncc1C(=O)N(C)C)c1cc2cccc(-c3cnn(C)c3)c2c(=O)n1-c1ccccc1` [Compound 203], the IC50 on PI3Kα lay in the range of 1000 to 10000 nM. For the same compound, in the assay with Balb/c splenic B cells, the EC50 is less than 100 nM. On to `COc1ccc(-c2cccc3cc([C@H](C)Nc4nc(N)ncc4C#N)n(-c4ccccc4)c(=O)c23)nc1` [Compound 206], for which the half-maximal inhibitory concentration (IC50) on PI3Kα was 1000 to 10000 nM. Also, in the assay on Balb/c splenic B cells, the EC50 is less than 100 nM. At PI3Kβ, `C[C@H](Nc1nc(N)ncc1C#N)c1cc2cccc(Cl)c2c(=O)n1-c1ccc(OC(F)(F)F)cc1` [Compound 210] showed an IC50 of 1000 to 10000 nM. The same measure, in the same setting: the result for `COc1ccc(-n2c([C@H](C)Nc3nc(N)ncc3C#N)cc3cccc(Cl)c3c2=O)cc1` [Compound 214] reads 1000 to 10000 nM. As for `C[C@H](Nc1nc(N)ncc1C#N)c1cc2cccc(Cl)c2c(=O)n1-c1ccc(Cl)cc1` [Compound 217], at PI3Kα, the IC50 is 1000 to 10000 nM. Also, the EC50 in the assay with Balb/c splenic B cells was less than 100 nM.

In the case of `CC#Cc1cccc2cc([C@H](C)Nc3nc(N)ncc3C#N)n(-c3ccccc3)c(=O)c12` [Compound 222], the IC50 on PI3Kα was in the range of 1000 to 10000 nM. Further, the EC50 in the assay on Balb/c splenic B cells is less than 100 nM.

Regarding `Cc1cc(-c2cccc3cc([C@H](C)Nc4nc(N)ncc4C#N)n(-c4ccccc4)c(=O)c23)cn(C)c1=O` [Compound 231], the IC50 at PI3Kα is 1000 to 10000 nM. Further, in the assay on Balb/c splenic B cells, the EC50 is less than 100 nM.

In the case of `C[C@H](Nc1nc(N)ncc1C#N)c1cc2cccc(Cl)c2c(=O)n1-c1cscn1` [Compound 249], the IC50 at PI3Kα was 1000 to 10000 nM. The EC50 in the assay with Balb/c splenic B cells is less than 100 nM. With `CCn1c([C@H](C)Nc2nc(N)ncc2C#N)cc2cccc(Cl)c2c1=O` [Compound 309], on PI3Kα, the IC50 was 1000 to 10000 nM. In addition, the EC50 in the assay with Balb/c splenic B cells was less than 100 nM. In the same order, the values of `CC(C)n1c([C@H](C)Nc2nc(N)ncc2C#N)cc2cccc(Cl)c2c1=O` [Compound 325] are 1000 to 10000 nM and less than 100 nM. For the compound `C[C@H](Nc1nc(N)ncc1C#N)c1cc2cccc(Cl)c2c(=O)n1-c1ccon1` [Compound 332], the IC50 on PI3Kα lay in the range of 1000 to 10000 nM. For the same compound, in the assay on Balb/c splenic B cells, the EC50 was less than 100 nM. In the same order, the values of `C[C@H](Nc1nc(N)ncc1-c1cscn1)c1cc2cccc(Cl)c2c(=O)n1-c1ccccc1` [Compound 360] are 1000 to 10000 nM and less than 100 nM. Regarding `C[C@H](Nc1nc(N)ncc1-c1cncs1)c1cc2cccc(Cl)c2c(=O)n1-c1ccccc1` [Compound 361], at PI3Kα, the IC50 was 1000 to 10000 nM. For the same compound, the EC50 in the assay with Balb/c splenic B cells is less than 100 nM. In the same order, the values of `C[C@H](Nc1nc(N)ncc1-c1ncco1)c1cc2cccc(Cl)c2c(=O)n1-c1ccccc1` [Compound 365] are 1000 to 10000 nM and less than 100 nM. In the case of `CCOc1nc(-c2cnc(N)nc2N[C@@H](C)c2cc3cccc(Cl)c3c(=O)n2-c2ccccc2)cs1` [Compound 369], the IC50 on PI3Kα fell in the range of 1000 to 10000 nM. In addition, the EC50 in the assay with Balb/c splenic B cells is less than 100 nM. In the same order, the values of `CCOc1ncc(-c2cnc(N)nc2N[C@@H](C)c2cc3cccc(Cl)c3c(=O)n2-c2ccccc2)s1` [Compound 371] are 1000 to 10000 nM and less than 100 nM.

In general, IC50 refers to the point on the concentration scale where inhibition reaches its midpoint.
